The target of the assay is human autotaxin (ATX) (Homo sapiens (Human), UniProt Q13822). In words: Human autotaxin assay (choline release from LPC, Hep3B conditioned media). The format is biochemical. The following applies: concentrated conditioned media from Hep3B cells, LPC substrate. As to the method: ATX activity is assayed in concentrated conditioned media from Hep3B human hepatocellular carcinoma cells by measuring the amount of choline released from the substrate, lysophosphatidylcholine (LPC) as it is cleaved to LPA. Conditioned media is collected from confluent Hep3B cells and concentrated 20-fold using Centriprep-30 filter devices (Millipore). […] 100 μl of a color mix containing 4.5 mM 4-aminoantipyrine, 2.7 mM N-ethyl-N-(2-hydroxy-3-sulfopropyl)-m-toluidine, 21 units/ml horseradish peroxidase and 3 units/ml choline oxidase in 50 mM Tris, pH 8, 4.5 mM MgCl2 is added and the incubation continued for 15 minutes at room temperature before reading the absorbance at 555 nm.

SMILES strings stand for the structures. Some results are limits rather than exact numbers.

Take `O=C1NCC(=O)N2Cc3c(c4ccccc4n3Cc3ccc(F)cc3)CC12` (racemic) [Compound 1-16, 7-(4-fluorobenzyl)-2,3,6,7,12,12a-hexahydropyrazino[1′,2′:1,6]pyrido[3,4-b]indole-1,4-dione]: the IC50 was under 500 nM.
Under `CC1(C)c2c(n(Cc3ccc(F)cc3)c3ccccc23)CN2C(=O)NC(=O)C21` (single isomer, unassigned) [A110 ent B, 6-(4-fluorobenzyl)-11,11-dimethyl-5,6,11,11a-tetrahydro-1H-imidazo[1′,5′:1,6]pyrido[3,4-b]indole-1,3(2H)-dione] stands under 500 nM; under `O=C1NC(=O)N2Cc3c(c4ccc(Cl)cc4n3Cc3ccc(F)cc3)C[C@@H]12` [Compound 1-26, (S)-8-chloro-6-(4-fluorobenzyl)-5,6,11,11a-tetrahydro-1H-imidazo[1′,5′:1,6]pyrido[3,4-b]indole-1,3(2H)-dione], over 1000 nM.
For `O=C1C2Cc3c(n(Cc4ccc(F)cc4)c4ccccc34)CN2C(=O)N1Cc1nn[nH]n1` (racemic) [Compound 1-140, 2-((2H-tetrazol-5-yl)methyl)-6-(4-fluorobenzyl)-5,6,11,11a-tetrahydro-1H-imidazo[1′,5′:1,6]pyrido[3,4-b]indole-1,3(2H)-dione], the half-inhibitory concentration (IC50) is under 500 nM.
In turn, `CC(C)(CN1C(=O)[C@@H]2Cc3c(n(Cc4ccc(F)cc4)c4ccccc34)CN2C1=O)C(=O)O` [Compound 1-30, (S)-3-(6-(4-fluorobenzyl)-1,3-dioxo-5,6,11,11a-tetrahydro-1H-imidazo[1′,5′:1,6]pyrido[3,4-b]indol-2(3H)-yl)-2,2-dimethylpropanoic acid] yielded a half-maximal inhibitory concentration (IC50) of under 500 nM.
Turning to `CS(=O)(=O)NC(=O)CCN1C(=O)[C@@H]2Cc3c(n(Cc4ccc(F)cc4)c4ccccc34)CN2C1=O` [Compound 1-142, (S)-3-(6-(4-fluorobenzyl)-1,3-dioxo-11,11a-dihydro-1H-imidazo[1′,5′:1,6]pyrido[3,4-b]indol-2(3H,5H,6H)-yl)-N-(methylsulfonyl)propanamide], the IC50 is under 500 nM.
Under `CC1(C)c2c(n(Cc3ccc(F)cc3)c3ccccc23)CN2C(=O)N(CCC(=O)O)C(=O)C21` (centres unmarked) [Compound A11, 3-(6-(4-fluorobenzyl)-11,11-dimethyl-1,3-dioxo-5,6,11,11a-tetrahydro-1H-imidazo[1′,5′:1,6]pyrido[3,4-b]indol-2(3H)-yl)propanoic acid] stands under 500 nM; under `O=C1NC(=S)N2Cc3c(c4ccccc4n3Cc3ccc(F)cc3)C[C@@H]12` [Compound E2, (S)-6-(4-fluorobenzyl)-3-thioxo-2,3,5,6,11,11a-hexahydro-1H-imidazo[1′,5′:1,6]pyrido[3,4-b]indol-1-one], under 500 nM.
Next, `COc1ccc(Cn2c3c(c4ccccc42)C[C@H]2C(=O)N(CC4(C(=O)O)CC4)C(=O)N2C3)cn1` [Compound 1-18, (S)-1-((6-((6-methoxypyridin-3-yl)methyl)-1,3-dioxo-5,6,11,11a-tetrahydro-1H-imidazo[1′,5′:1,6]pyrido[3,4-b]indol-2(3H)-yl)methyl)cyclopropane-1-carboxylic acid]: under 500 nM; `O=C(O)CN1CC(=O)N2Cc3c(c4ccccc4n3Cc3ccc(F)cc3)CC2C1=O` (racemic) [Compound 1-23, 2-(7-(4-fluorobenzyl)-1,4-dioxo-3,4,6,7,12,12a-hexahydropyrazino[1′,2′:1,6]pyrido[3,4-b]indol-2(1H)-yl)acetic acid]: under 500 nM.
For the compound `O=C1OC[C@H]2Cc3c(n(Cc4ccc(F)cc4)c4ccccc34)CN12` [Compound 1-10, (R)-6-(4-fluorobenzyl)-5,6,11,11a-tetrahydrooxazolo[3′,4′:1,6]pyrido[3,4-b]indol-3(1H)-one], the IC50 was over 1000 nM.
For `O=C(O)CCN1C(=O)[C@@H]2Cc3c(n(Cc4ccc(F)nc4)c4ccccc34)CN2C1=O` [Compound 1-135, (S)-3-(6-((6-fluoropyridin-3-yl)methyl)-1,3-dioxo-11,11a-dihydro-1H-imidazo[1′,5′:1,6]pyrido[3,4-b]indol-2(3H,5H,6H)-yl)propanoic acid], the IC50 was under 500 nM.
Next, `O=C(O)CCN1C(=O)C2Cc3c(n(Cc4ccc(F)cc4)c4ncccc34)CN2C1=O` (single isomer, unassigned; enta) [C114 entA, 3-{8-[(4-fluorophenyl)methyl]-12,14-dioxo-6.8.11.13-tetraazatetracyclo[7.7.0.02, 7.011,15]hexadeca-1(9),2(7),3,5-tetraen-13-yl}propionic acid]: under 500 nM; `O=C(O)CCCN1C(=O)[C@@H]2Cc3c(n(Cc4ccc(F)cc4)c4ccccc34)CN2C1=O` [Compound 1-2, (S)-4-(6-(4-fluorobenzyl)-1,3-dioxo-11,11a-dihydro-1H-imidazo[1′,5′:1,6]pyrido[3,4-b]indol-2(3H,5H,6H)-yl)butanoic acid]: under 500 nM.
Under `O=C(CCN1C(=O)[C@@H]2Cc3c(n(Cc4ccc(F)cc4)c4ccccc34)CN2C1=O)NS(=O)(=O)c1ccccc1` [Compound 1-143, (S)-3-(6-(4-fluorobenzyl)-1,3-dioxo-11,11a-dihydro-1H-imidazo[1′,5′:1,6]pyrido[3,4-b]indol-2(3H,5H,6H)-yl)-N-(phenylsulfonyl)propanamide] stands under 500 nM; under `O=C(O)CCN1C(=O)[C@@H]2Cc3c(n(Cc4ccc(F)cc4)c4ccccc34)CN2C1=S` [Compound E1, (S)-3-(6-(4-fluorobenzyl)-1-oxo-3-thioxo-5,6,11,11a-tetrahydro-1H-imidazo[1′,5′:1,6]pyrido[3,4-b]indol-2(3H)-yl)propanoic acid], over 1000 nM; under `CC(C)(CN1C(=O)C2Cc3c(n(Cc4ccc(F)cc4)c4ncccc34)CN2C1=O)C(=O)O` (centres unmarked) [Compound C111, 3-{8-[(p-fluorophenyl)methyl]-12,14-dioxo-6.8.11.13-tetrazatetracyclo[7.7.0.02,7.011,15]hexadeca-1(9),2(7),3,5-tetraene-13-yl}-2,2-dimethyl propionic acid], under 500 nM.
`O=C1OC[C@@H]2Cc3c(n(Cc4ccc(F)cc4)c4ccccc34)CN12` [Compound 1-9, (S)-6-(4-fluorobenzyl)-5,6,11,11a-tetrahydrooxazolo[3′,4′:1,6]pyrido[3,4-b]indol-3(1H)-one] gave a half-inhibitory concentration (IC50) of under 500 nM.
Next, `O=C(O)CN1CC2Cc3c(n(Cc4ccc(F)cc4)c4ccccc34)CN2C1=O` (racemic) [Compound 1-20, 2-(6-(4-fluorobenzyl)-3-oxo-11,11a-dihydro-1H-imidazo[1′,5′:1,6]pyrido[3,4-b]indol-2(3H,5H,6H)-yl)acetic acid]: 500 to 1000 nM.
Next, `O=C1C2Cc3c(n(Cc4ccc(F)cc4)c4ccccc34)CN2C(=O)N1CCO` (centres unmarked) [Compound 1-121, 6-(4-fluorobenzyl)-2-(2-hydroxyethyl)-5,6,11,11a-tetrahydro-1H-imidazo[1′,5′:1,6]pyrido[3,4-b]indole-1,3(2H)-dione]: under 500 nM; `O=C(O)CCCN1C(=O)C2Cc3c(n(CCCc4ccccc4)c4ccccc34)CN2C1=O` (racemic) [Compound 1-7, 4-(1,3-dioxo-6-(3-phenylpropyl)-11,11a-dihydro-1H-imidazo[1′,5′:1,6]pyrido[3,4-b]indol-2(3H,5H,6H)-yl)butanoic acid]: under 500 nM.
Next, `O=C1NC(=S)N2Cc3c(c4cccnc4n3Cc3ccc(F)cc3)CC12` (centres unmarked) [Compound E3]: under 500 nM; `O=C(O)CCN1C(=O)[C@@H]2Cc3c(n(Cc4ccc(F)cc4F)c4ccccc34)CN2C1=O` [Compound 1-134, (S)-3-(6-(2,4-difluorobenzyl)-1,3-dioxo-11,11a-dihydro-1H-imidazo[1′,5′:1,6]pyrido[3,4-b]indol-2(3H,5H,6H)-yl)propanoic acid]: under 500 nM.
`O=C1[C@@H]2Cc3c(n(Cc4ccc(F)cc4)c4ccccc34)CN2C(=O)N1CC1(C(=O)O)CC1` [Compound 1-34, (S)-1-((6-(4-fluorobenzyl)-1,3-dioxo-5,6,11,11a-tetrahydro-1H-imidazo[1′,5′:1,6]pyrido[3,4-b]indol-2(3H)-yl)methyl)cyclopropane-1-carboxylic acid] had a half-inhibitory concentration (IC50) of under 500 nM.
The compound `CN1C(=O)C2Cc3c(n(Cc4ccc(F)cc4)c4ccccc34)CN2C1=O` (racemic) [Compound 1-129, 6-(4-fluorobenzyl)-2-methyl-5,6,11,11a-tetrahydro-1H-imidazo[1′,5′:1,6]pyrido[3,4-b]indole-1,3(2H)-dione] had a half-maximal inhibitory concentration (IC50) of under 500 nM.
In turn, `O=C(O)CCN1CC(=O)N2Cc3c(c4ccccc4n3Cc3ccc(F)cc3)CC2C1=O` (centres unmarked) [Compound 1-24, 3-(7-(4-fluorobenzyl)-1,4-dioxo-3,4,6,7,12,12a-hexahydropyrazino[1′,2′:1,6]pyrido[3,4-b]indol-2(1H)-yl)propanoic acid] gave an IC50 of under 500 nM.
In turn, `O=C1OCC2Cc3c(n(Cc4ccc(F)cc4)c4ccccc34)CN12` (centres unmarked) [Compound 1-8, 6-(4-fluorobenzyl)-5,6,11,11a-tetrahydrooxazolo[3′,4′:1,6]pyrido[3,4-b]indol-3(1H)-one] returned an IC50 of under 500 nM.
Next, `CC1(C)c2c(n(Cc3ccc(F)cc3)c3ccccc23)CN2C(=O)NC(=O)C21` (racemic) [Compound A110, 6-(4-fluorobenzyl)-11,11-dimethyl-5,6,11,11a-tetrahydro-1H-imidazo[1′,5′:1,6]pyrido[3,4-b]indole-1,3(2H)-dione]: under 500 nM.
Next, `O=C(O)CCN1C(=O)C2Cc3c(n(Cc4ccc(F)cc4)c4ncccc34)CN2C1=O` (centres unmarked) [Compound C114, 3-{8-[(4-fluorophenyl)methyl]-12,14-dioxo-6.8.11.13-tetraazatetracyclo[7.7.0.02, 7.011,15]hexadeca-1(9),2(7),3,5-tetraen-13-yl}propionic acid]: under 500 nM.

The values are drawn from US9926318B2, “Tetracyclic autotaxin inhibitors” (PharmAkea, Inc., priority 2013, dated 2018).
